Measurements from ChEMBL document CHEMBL1140021, “Ferulic acid and benzothiazole dimer derivatives with high binding affinity to beta-amyloid fibrils” (Bioorg Med Chem Lett, 2007).

Assay: Displacement of [125I]TZDM from human beta amyloid fibril 1-42

| SMILES | Ki |
| --- | --- |
| COc1cc(/C=C/C(=O)O)ccc1N1CCN(c2ccc(/C=C/C(=O)O)cc2OC)CC1 | 1.36 nM |
| COc1cc(/C=C/C(=O)O)ccc1OCCOc1ccc(N(C)C)cc1OC | 1 nM |
| Cc1ccc2nc(NCCNc3nc4ccc(C)cc4s3)sc2c1 | 0.81 nM |
| COc1cc(/C=C/C(=O)O)ccc1OCCOc1ccc(N(CC(=O)O)CC(=O)O)cc1OC | 0.57 nM |
| Fc1ccc2nc(NCCNc3nc4ccc(F)cc4s3)sc2c1 | 0.75 nM |
| Brc1ccc2nc(NCCNc3nc4ccc(Br)cc4s3)sc2c1 | 1.11 nM |
| Nc1ccc2nc(NCCNc3nc4ccc(N)cc4s3)sc2c1 | 0.69 nM |
| CS(=O)(=O)c1ccc2nc(NCCNc3nc4ccc(S(C)(=O)=O)cc4s3)sc2c1 | > 10 nM |
| CN(CCN(C)c1nc2ccc(Cl)cc2s1)c1nc2ccc(Cl)cc2s1 | 0.64 nM |
| CN(CCN(C)c1nc2ccc(S(C)(=O)=O)cc2s1)c1nc2ccc(S(C)(=O)=O)cc2s1 | 0.55 nM |
| CN(CCN(C)c1nc2ccc(N)cc2s1)c1nc2ccc(N)cc2s1 | 0.69 nM |
| COc1cc(/C=C/C(=O)O)ccc1OCCOc1ccc(/C=C/C(=O)O)cc1OC | 0.6 nM |
| CN(CCN(C)c1nc2ccccc2s1)c1nc2ccccc2s1 | 0.53 nM |
| CN(CCN(C)c1nc2ccc(F)cc2s1)c1nc2ccc(F)cc2s1 | 1.37 nM |
| CN(CCN(C)c1nc2ccc(Br)cc2s1)c1nc2ccc(Br)cc2s1 | 0.55 nM |
| COc1cc(/C=C/C(=O)O)ccc1N(C)CCN(C)c1ccc(/C=C/C(=O)O)cc1OC | 0.72 nM |
| c1ccc2sc(NCCNc3nc4ccccc4s3)nc2c1 | 0.71 nM |
| Clc1ccc2nc(NCCNc3nc4ccc(Cl)cc4s3)sc2c1 | 0.96 nM |
| Cc1ccc2nc(N(C)CCN(C)c3nc4ccc(C)cc4s3)sc2c1 | 0.61 nM |
| COc1cc(/C=C/C(=O)O)ccc1O [FERULATE] | 0.77 nM |
| [11CH3]Nc1ccc(-c2nc3ccc(O)cc3s2)cc1 [PITTSBURGH COMPOUND B] | 0.77 nM |
